This test has as its system 242566-281-R-J2-PDC complex spheroid viability. As to the kind of experiment: Anticancer human tumor 242566-281-R-J2-PDC patient-derived pancreatic carcinoma cell line growth inhibition [CLK]. The note with it: for viability, T/C: stronger effect = lower value. An excerpt: A high-throughput screen of multi-cell type tumor spheroids was designed to identify active combinations of […] and targeted small molecules. Complex spheroids include a stromal component modeled by human endothelial cells (HUVEC) and fibroblasts modeled by human mesenchymal stem cells (MSCs). The concentration ranges selected for each drug and investigational agent were based upon clinically achievable concentrations if the clinical Cmax of the agent was known.
Compounds. The drugs and investigational agents: cirtuvivint (SM08502; NSC835563), CC-671 (NSC850746), vemurafenib (NSC761431), tapotoclax (NSC804041), sotorasib (NSC818433), adagrasib (NSC831453), MRTX-1133 (NSC836407), BAY2416964 (NSC825713), copanlisib (NSC816437), inavolisib (NSC800729), abemaciclib (NSC768073), osimertinib (NSC779217), entinostat (NSC756642), eltanexor (KPT-8602, NSC794443), venetoclax (NSC766270), ceralasertib (NSC777638), bortezomib (NSC756655), olaparib (NSC753686), talazoparib (NSC767125), alisertib (NSC759677), peposertib (NSC802822), gemcitabine (NSC613327), 5-fluorouracil (NSC19893), SN-38 (NSC673596), oxaliplatin (NSC266046), paclitaxel (NSC125973), and doxorubicin (NSC123127), were obtained from the National Cancer Institute (NCI) Developmental Therapeutics Program Chemical Repository. The FDA-approved anticancer drug set is available from the Developmental Therapeutics Program at https://dtp.cancer.gov/organization/dscb/obtaining/available plates.htm. […] The stock solutions were prepared in dimethyl sulfoxide (DMSO, Sigma-Aldrich, St. Louis, MO, cat. D2650), except for the platinum complexes which were prepared in saline (Quality Biological, Gaithersburg, MD, cat. 114-055-101), at 800-fold the tested concentration and stored at -70 degrees C prior to their use. All drugs and investigational agents were tested over a range starting from a high concentration at or near the clinical Cmax and decreasing in half-log increments. If the clinical Cmax for an agent had not been determined, the highest concentration tested was 10 microM.
Cell Culture. All cells were maintained in an incubator at 37 degrees C and 5% CO2 with 95% humidity. The PDC lines were cultured according to standard operating procedures established by the NCI PDMR. Briefly, all PDCs were thawed and cultured in Matrigel-coated flasks prepared with a working solution of 1X Ham's F-12 nutrient mix, without supplementation (Invitrogen, Waltham, MA, cat. 11765054), 100 U/mL penicillin-streptomycin (Invitrogen, cat. 15140122), and 2.5% Matrigel (Corning Inc., Corning, NY, cat. 354248) for the first three passages. The 947758-054-R-J2-PDC line was cultured in 6B/Colon 1A media, which includes advanced DMEM/F-12 (Thermo Fisher Scientific, cat. 12634028), 10 mM HEPES (Thermo Fisher Scientific, cat. 15630080), 1X GlutaMAX supplement (Thermo Fisher Scientific, cat. 35050061), 0.1 mg/mL primocin (InvivoGen, cat. ant-pm-2), 10% defined fetal bovine serum, heat inactivated (HyClone Laboratories Inc., cat. SH30070.03HI), 1.25 mM N-Acetyl-L-cysteine (Sigma-Aldrich, cat. A9165), 10 mM nicotinamide (Sigma-Aldrich, cat. N0636), 1X B-27 supplement (Thermo Fisher Scientific, cat. 17504044), 1X N-2 supplement (Thermo Fisher Scientific, cat. 17502048), and 10 microM Y-27632 dihydrochloride (Tocris Bioscience, cat. 1254). The 876862-298-R-J1-PDC was cultured in 6E media, which includes all 6B/Colon 1A media components plus 50% L-WRN conditioned media (ATCC, cat. CRL-3276), 50 ng/mL recombinant human EGF recombinant protein (hEGF; Thermo Fisher Scientific, cat. PHG0311), 10 ng/mL recombinant human fibroblast growth factor 10 (hGFG-10; PeproTech, cat. 100-26), 1 ng/mL recombinant human fibroblast growth factor 2 (hFGF-2; PeproTech, cat. 100-18B), and 1 µM prostaglandin E2 (PGE2; Tocris, cat. 2296). The 227483-062-R1-J1-PDC line was cultured in Panc media, containing all 6E components except hFGF-2, with the addition of 500 nM SB-431542 (Selleckchem, cat. S1067) and 10 nM gastrin (Tocris, cat. 3006). […]

SMILES strings stand for the structures. Values joined by “and” are separate entries in the source; they are usually repeats but may differ in a detail not shown here. Equal entries are not always repeated.
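Also: spheroids exposed to compounds for 7 days before readout.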
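For viability, T/C in this document: 100% = DMSO vehicle control wells.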

Usually viability, T/C stands for the result in the treated group divided by that in the control group, in per cent. Consider `C#Cc1c(F)ccc2cc(O)cc(-c3ncc4c(N5CC6CCC(C5)N6)nc(OCC56CCCN5CC(F)C6)nc4c3F)c12` (configuration not stated), for which the viability, T/C was 104% and 67.3% (compound 0.0316 µM); 90.1% and 49.6% (compound 0.1 µM); 76.2% and 43.3% (compound 0.316 µM); 58.3% and 26.4% (compound 1 µM); 48.6% and 26% (compound 3.16 µM); 40% and 21.3% (compound 10 µM).

Broadly, the IC50 is the concentration that gives 50% inhibition. Regarding `C=C(F)C(=O)N1CCN(c2nc(OCC3CCCN3C)nc3c2CCN(c2cccc4cccc(Cl)c24)C3)CC1CC#N` (configuration not stated), the viability, T/C by setting is: (compound 0.0316 µM) 88.1% and 109%; (compound 0.1 µM) 81.2% and 96.7%; (compound 0.316 µM) 70.4% and 103%; (compound 1 µM) 116% and 111%; (compound 3.16 µM) 103% and 83%; (compound 10 µM) 0.27% and 0.16%. The IC50 (curve of compound) was 5.35 µM and 5 µM.

With `C=CC(=O)N1CCN(c2nc(=O)n(-c3c(C)ccnc3C(C)C)c3nc(-c4c(O)cccc4F)c(F)cc23)C(C)C1` (configuration not stated), the viability, T/C is 95.5% and 104% (compound 0.0316 µM); 80.4% and 92.4% (compound 0.1 µM); 78.5% and 103% (compound 0.316 µM); 104% and 90.6% (compound 1 µM); 102% and 88.7% (compound 3.16 µM); 70.8% and 77.6% (compound 10 µM). Moreover, the IC50 (curve of compound) was more than 10 µM.

On to `C=CC(=O)Nc1cc(Nc2nccc(-c3cn(C)c4ccccc34)n2)c(OC)cc1N(C)CCN(C)C`, for which the viability, T/C is, setting by setting: (compound 0.000949 µM) 98.9% and 87.5%; (compound 0.003 µM) 97.1% and 95.4%; (compound 0.00949 µM) 94.8% and 88.7%; (compound 0.03 µM) 95.2% and 96.2%; (compound 0.0949 µM) 95.1% and 107%; (compound 0.3 µM) 69.7% and 97.1%. Further, for the setting “curve of compound”, the IC50 was more than 0.3 µM.

In the case of `CC(C)CC(NC(=O)C(Cc1ccccc1)NC(=O)c1cnccn1)B(O)O` (configuration not stated), the viability, T/C runs as follows: (compound 0.000949 µM) 99.7% and 88.2%; (compound 0.003 µM) 40% and 80.3%; (compound 0.00949 µM) 1.73% and 1.58%; (compound 0.03 µM) 0.47% and 0.59%; (compound 0.0949 µM) 0.33% and 0.52%; (compound 0.3 µM) 0.18% and 0.32%. In addition, the IC50 (curve of compound) was 0.00248 µM and 0.00467 µM.

For the compound `CC(CO)NC(=O)c1cc(-c2ccc(Cl)cc2)nn(-c2cnn(C)c2)c1=O` (configuration not stated), the viability, T/C is 94.4% and 97.3% (compound 0.0316 µM); 96.2% and 94.5% (compound 0.1 µM); 85.6% and 102% (compound 0.316 µM); 116% and 98.1% (compound 1 µM); 131% and 97.1% (compound 3.16 µM); 75.8% and 82.5% (compound 10 µM). For the same compound, for the setting “curve of compound”, the IC50 is more than 10 µM.

Take `CC(Nc1ccc2c(c1)OCCn1cc(N3C(=O)OCC3C(F)F)nc1-2)C(N)=O` (configuration not stated): the viability, T/C was 98.6% and 96.1% (compound 0.0316 µM); 91.6% and 97.8% (compound 0.1 µM); 71.3% and 89.9% (compound 0.316 µM); 51.9% and 68.2% (compound 1 µM); 36.4% and 46.8% (compound 3.16 µM); 21.7% and 32.6% (compound 10 µM). Further, where the note is “curve of compound”, the IC50 was 1.18 µM and 2.54 µM.

Take `CC1(C)CCC(CN2CCN(c3ccc(C(=O)NS(=O)(=O)c4ccc(NCC5CCOCC5)c([N+](=O)[O-])c4)c(Oc4cnc5[nH]ccc5c4)c3)CC2)=C(c2ccc(Cl)cc2)C1`: the viability, T/C was 110% and 84.2% (compound 0.0316 µM); 89.7% and 93.9% (compound 0.1 µM); 109% and 102% (compound 0.316 µM); 117% and 132% (compound 1 µM); 109% and 122% (compound 3.16 µM); 14.1% and 73.1% (compound 10 µM). Moreover, under “curve of compound”, the IC50 is 6.41 µM and > 10 µM.

On to `CCCS(=O)(=O)Nc1ccc(F)c(C(=O)c2c[nH]c3ncc(-c4ccc(Cl)cc4)cc23)c1F`, for which the viability, T/C was 109% and 86.7% (compound 0.0316 µM); 104% and 98.7% (compound 0.1 µM); 94% and 81.7% (compound 0.316 µM); 106% and 86% (compound 1 µM); 104% and 115% (compound 3.16 µM); 6.44% and 6.7% (compound 10 µM). For the same compound, where the note is “curve of compound”, the IC50 is 5.96 µM and 5.64 µM.

In the case of `CCN1CCN(Cc2ccc(Nc3ncc(F)c(-c4cc(F)c5nc(C)n(C(C)C)c5c4)n3)nc2)CC1`, the viability, T/C is, setting by setting: (compound 0.00316 µM) 102% and 83%; (compound 0.01 µM) 102% and 94.6%; (compound 0.0316 µM) 90.6% and 95.6%; (compound 0.1 µM) 103% and 89%; (compound 0.316 µM) 118% and 100%; (compound 1 µM) 132% and 152%. For the setting “curve of compound”, the IC50 was more than 1 µM.

Consider `CCc1c2c(nc3ccc(O)cc13)-c1cc3c(c(=O)n1C2)COC(=O)[C@]3(O)CC`, for which the viability, T/C is 87.2% and 108% (compound 0.00316 µM); 56.3% and 60% (compound 0.01 µM); 30.8% and 39% (compound 0.0316 µM); 12.3% and 15.7% (compound 0.1 µM); 5.72% and 5.99% (compound 0.316 µM); 2.95% and 2.38% (compound 1 µM). Moreover, the IC50 (curve of compound) was 0.0134 µM and 0.0169 µM.

As for `CN1CCN(c2cc(C(=O)Nc3cc4cc(-c5cnn(C)c5)ccc4cn3)ccn2)CC1`, the viability, T/C reads like this: (compound 0.0316 µM) 101% [middle of 12 runs]; (compound 0.1 µM) 90.2% [middle of 12 runs]; (compound 1 µM) 4.87% [middle of 12 runs]; (compound 3.16 µM) 7.54% [middle of 12 runs]; (compound 10 µM) 1.65% [middle of 11 runs]. Besides, the IC50 (compound alone, run of 07/31/2023) is 230 nM [middle of 12 runs].

For `COC1C=CCC(C)C(C)S(=O)(=O)NC(=O)c2ccc3c(c2)N(CC2CCC21)CC1(CCCc2cc(Cl)ccc21)CO3` (configuration not stated), the viability, T/C was 91.1% and 108% (compound 0.0316 µM); 69.8% and 78.5% (compound 0.1 µM); 82.5% and 70.2% (compound 0.316 µM); 92.6% and 93.4% (compound 1 µM); 82.5% and 81.2% (compound 3.16 µM); 19.6% and 30.2% (compound 10 µM). The IC50 (curve of compound) was 5.74 µM and 6.43 µM.

`COc1c(OCCCN2CCOCC2)ccc2c3n(c(=NC(=O)c4cnc(N)nc4)nc12)CCN3`: the viability, T/C was 86.1% and 72.8% (compound 0.00316 µM); 73.2% and 74.1% (compound 0.01 µM); 44.2% and 56.4% (compound 0.0316 µM); 21.8% and 30.8% (compound 0.1 µM); 12.3% and 19.2% (compound 0.316 µM); 6.02% and 16.4% (compound 1 µM). Further, the IC50 (curve of compound) was 0.0258 µM and 0.0432 µM.

For the compound `Cn1ncnc1[C@H]1c2n[nH]c(=O)c3cc(F)cc(c23)N[C@@H]1c1ccc(F)cc1`, the viability, T/C runs as follows: (compound 0.000316 µM) 106% and 93.2%; (compound 0.001 µM) 93.8% and 102%; (compound 0.00316 µM) 111% and 107%; (compound 0.01 µM) 107% and 91%; (compound 0.0316 µM) 96.3% and 95.3%; (compound 0.1 µM) 87.1% and 99.8%. For the same compound, under “curve of compound”, the IC50 was more than 0.1 µM.

In the case of `NC(=O)C(=Cn1cnc(-c2cc(C(F)(F)F)cc(C(F)(F)F)c2)n1)c1cncnc1`, the viability, T/C reads like this: (compound 0.00949 µM) 108% and 96.6%; (compound 0.03 µM) 103%; (compound 0.0949 µM) 99.7% and 142%; (compound 0.3 µM) 99% and 152%; (compound 0.949 µM) 55.8% and 101%; (compound 3 µM) 25.7% and 58.9%. Further, the IC50 (curve of compound) is 1.19 µM and > 3 µM.

Regarding `Nc1ccccc1NC(=O)c1ccc(CNC(=O)OCc2cccnc2)cc1`, the viability, T/C is 97.8% and 80.4% (compound 0.0316 µM); 82% and 115% (compound 0.1 µM); 98.7% and 85.3% (compound 0.316 µM); 84.6% and 107% (compound 1 µM); 68% and 110% (compound 3.16 µM); 14.5% and 41.5% (compound 10 µM). Also, the 50% inhibitory concentration (IC50) (curve of compound) is 4.64 µM and 8.46 µM.
